Series [1] deals with L1210. Nature of the series: In vitro cytotoxic activity, L1210. In kind it is cell-based. Particulars: for IC50: L1210 in vitro cytotoxic activity.
The subject of a further series is w794 DNA. Nature of the series: DNA alkylation, thermally-induced strand cleavage of w794 DNA. In kind it is biochemical. Particulars: 23 °C.
A short description of series [2]: Acid-catalyzed solvolysis at pH 3 monitored by UV. It counts as physicochemical. Particulars: for solvolysis half-life t1/2 / solvolysis rate constant k: pH 3, 50% MeOH–buffer.
The subject of a further series is w836 DNA. Briefly: DNA alkylation, thermally-induced strand cleavage of w836 DNA. It counts as biochemical. As to conditions: after 24 h.
Another series relates to w794 and w836 duplex DNA. Nature of the series: DNA alkylation of the simple alkylation subunits. It counts as biochemical. As to conditions: for DNA alkylation selectivity (sites): both enantiomers.
The nature of the next series: Solvolysis at pH 7. In kind it is physicochemical.
The conditions of series [3]: pH 3; cited from earlier work.
In series [4] the test system is L1210. Particulars: read-out: L1210 IC50; L1210, introduction; cited from earlier work.

The values below come from PMC2646182 (Journal of the American Chemical Society, 2009).

Entries after “also recorded” stand apart in the source; their conditions may differ. Like-named read-outs stand apart in the source and are kept apart here.

With `COC(=O)c1cc2c([nH]1)[C@@]13C[C@@H]1CN(C(=O)OC(C)(C)C)C3=CC2=O` [(−)-7, N-Boc-iso-DSA], in the series with L1210 [1], inhibition was half-maximal at 330 nM (IC50).

For O-benzyl-iso-duocarmycin SA [(−)-34], the “DNA alkylation efficiency relative to duocarmycin SA (1)” value in the series on w794 DNA (w794, 22 h, 1 × 10^−5 M) is reported as “nearly equivalent to that of 1”. In addition, in the series on L1210 [1] (L1210), the “fold less active than duocarmycin SA” value worked out at 600 fold and the “fold less active than iso-duocarmycin SA” value stood at 120 fold. The molecule further displayed an IC50 in the series on L1210 [1] of 6 nM. For the same molecule, the “fold more reactive than N-Boc-iso-DSA (7)” value in series [2] (pH 3 solvolysis) came out at 470 fold.

With `COC(=O)c1cc2c([nH]1)[C@@]13C[C@@H]1CN(C(=O)OC(C)(C)C)C3=CC2=O` [(+)-7, N-Boc-iso-DSA], the IC50 with L1210 [1] was 33 nM.

On to `COC(=O)c1cc2c([nH]1)[C@@]13C[C@@H]1CN(C(=O)c1cc4cc(OC)c(OC)c(OC)c4[nH]1)C3=CC2=O` [Compound 5, iso-duocarmycin SA], for which the “DNA alkylation site selectivity vs duocarmycin SA counterpart” value in the series on w794 DNA (w794, 48 h) is on record as “alkylated the same site as its duocarmycin SA counterpart”. Besides, in the series with L1210 [1] (L1210), the “fold difference in potency, natural vs unnatural enantiomer” value came out at 10 fold and the “fold less potent than the duocarmycin SA / yatakemycin series counterpart” value amounted to 5 fold. Moreover, in the series on L1210 [1], the IC50 stood at 0.05 nM.

In the case of iso-yatakemycin [(+)-6], the “fold less DNA alkylation than the yatakemycin enantiomers” value with w836 DNA is given as 2–5 fold. In the series on L1210 [1], this molecule yielded an IC50 of 0.015 nM.

`COC(=O)c1cc2c([nH]1)C(=O)C=C1N(C(=O)OC(C)(C)C)CC3CC123` (single isomer, unassigned; (-)) [(−)-8, N-Boc-DSA, reference compound]: 60 nM corresponded to half-maximal inhibition with L1210 [1] (IC50).

In the series with L1210 [1], O-benzyl-iso-duocarmycin SA [(+)-34] displayed an IC50 of 7 nM.

The molecule `COC(=O)c1cc2c([nH]1)C(=O)C=C1N(C(=O)OC(C)(C)C)CC3CC123` (single isomer, unassigned; (+)) [(+)-8, N-Boc-DSA, reference compound] had an IC50 with L1210 [1] of 6 nM.

With iso-yatakemycin [(−)-6], the “fold less DNA alkylation than the yatakemycin enantiomers” value in the series with w836 DNA is on record as 2–5 fold. Further, in the series with L1210 [1] (L1210), the “fold less potent than the duocarmycin SA / yatakemycin series counterpart” value is “ca. 5 fold”. Besides, the midpoint of inhibition with L1210 [1], the IC50, lay at 0.03 nM.

In the series with L1210 [1], `COC(=O)c1cc2c([nH]1)[C@@]13C[C@@H]1CN(C(=O)c1cc4cc(OC)c(OC)c(OC)c4[nH]1)C3=CC2=O` [(−)-5, iso-duocarmycin SA] gave an IC50 of 0.55 nM.

`COC(=O)c1cc2c([nH]1)C(=O)C=C1N(C(=O)c3cc4cc(OC)c(OC)c(OC)c4[nH]3)CC3CC123` (single isomer, unassigned; (-)) [(−)-1, duocarmycin SA, reference compound] showed an IC50 with L1210 [1] of 0.1 nM.

`COC(=O)c1cc2c([nH]1)C(=O)C=C1N(C(=O)OC(C)(C)C)CC3CC123` (stereo not shown) [Compound 8, N-Boc-DSA, reference compound]: in the series with w794 and w836 duplex DNA, the “times less efficient DNA alkylation than the full length agents” value was 10^3–10^4 times; the “DNA alkylation selectivity (sites)” value was 5′-AA and 5′-TA. Further, in the series “Solvolysis at pH 7”, the “solvolysis at pH 7” value is “stable”. Besides, the “solvolysis half-life t1/2” value in series [3] is reported as 177 h.

Take `COC(=O)c1cc2c([nH]1)C(=O)C=C1N(C(=O)c3cc4cc(OC)c(OC)c(OC)c4[nH]3)CC3CC123` (stereo not shown) [Compound 1, Duocarmycin SA]: the IC50 with L1210 [4] is 0.01 nM.

With `COC(=O)c1cc2c([nH]1)[C@@]13C[C@@H]1CN(C(=O)OC(C)(C)C)C3=CC2=O` [Compound 7, N-Boc-iso-DSA], in the series with w794 and w836 duplex DNA, the “times less efficient DNA alkylation than the full length agents” value is given as 10^3–10^4 times; the “DNA alkylation selectivity (sites)” value was 5′-AA and 5′-TA. Also, the “solvolysis at pH 7” value in “Solvolysis at pH 7” is “no measurable solvolysis; also recorded: stable”. Besides, in the series on L1210 [1] (L1210), the “fold difference in potency, natural vs unnatural enantiomer” value was 10 fold and the “fold less potent than the duocarmycin SA / yatakemycin series counterpart” value worked out at 5 fold. In series [2], the “solvolysis half-life t1/2” value came to 89 h and the “solvolysis rate constant k” value came out at 2.2e-06 s⁻¹. Besides, in series [2] (pH 3 solvolysis), the “fold more reactive than N-Boc-DSA (8)” value was 2 fold.

Molecule `COC(=O)c1cc2c([nH]1)C(=O)C=C1N(C(=O)c3cc4cc(OC)c(OC)c(OC)c4[nH]3)CC3CC123` (single isomer, unassigned; (+)) [(+)-1, duocarmycin SA, reference compound] came in with an IC50 in the series with L1210 [1] of 0.01 nM.

Turning to “yatakemycin [Compound 3, reference compound]”, the IC50 with L1210 [1] is 0.006 nM; in the series on L1210 [4] it was 0.003 to 0.006 nM.

In the series on L1210 [1], `COC(=O)c1cc2c([nH]1)[C@@]13C[C@@H]1CN(C(=O)c1cc4cc(OC)c(OC)c(OC)c4[nH]1)C3=CC2=O` [(+)-5, iso-duocarmycin SA] had an IC50 of 0.05 nM.

Regarding “O-benzyl-iso-duocarmycin SA [Compound 34]”, in “Solvolysis at pH 7” (pH 7, 50% MeOH–H2O), the “solvolysis half-life t1/2” value is reported as 0.20 h and the “solvolysis rate constant k” value turned out to be 0.000977 s⁻¹. In series [2], the “solvolysis half-life t1/2” value is 0.19 h and the “solvolysis rate constant k” value is 0.001 s⁻¹. For the same molecule, in series [2] (pH 3 solvolysis), the “fold more reactive than N-Boc-iso-DSA (7)” value was 470 fold.

Usually IC50 stands for the concentration that gives 50% inhibition.
